Source: paper PMC7413254 (Nature Communications, 2020)
Numbering of substitutions follows the chain as printed. Like-named read-outs stand apart in the source and are kept apart here.

How the values were obtained:
[1] = biological target: T1, PfCRT^3D7 in C2^GC03 parasites (Plasmodium falciparum, UniProt Q8IBZ9); experiment: P. falciparum H+-efflux assay (rate of DV alkalinisation after concanamycin A); format: cell-based; details: C2GC03; test solute 10 μM
T1 construct: PfCRT also functions as a peptide transporter within its native environment of the DV membrane; expressed in transfected cells; host or cells: P. falciparum pfcrt transfectant line C2^GC03 (saponin-isolated trophozoites)
T1 sequence (Q8IBZ9 1-424): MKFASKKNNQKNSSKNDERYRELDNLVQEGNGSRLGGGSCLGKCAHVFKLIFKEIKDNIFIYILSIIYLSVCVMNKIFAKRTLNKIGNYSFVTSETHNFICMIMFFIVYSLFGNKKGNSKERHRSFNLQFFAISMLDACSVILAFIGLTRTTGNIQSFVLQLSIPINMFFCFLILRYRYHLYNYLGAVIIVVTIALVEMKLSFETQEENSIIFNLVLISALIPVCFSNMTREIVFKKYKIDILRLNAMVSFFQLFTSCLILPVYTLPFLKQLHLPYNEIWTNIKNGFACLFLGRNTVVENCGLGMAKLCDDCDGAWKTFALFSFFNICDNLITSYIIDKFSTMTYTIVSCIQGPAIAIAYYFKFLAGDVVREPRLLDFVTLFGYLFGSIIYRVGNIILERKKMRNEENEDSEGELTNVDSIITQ

[2] = biological target: T2, PfCRT^Dd2 in C4^Dd2 parasites (Plasmodium falciparum, UniProt Q8IBZ9, A220S/I356T/K76T/M74I/N326S/N75E/Q271E/R371I); experiment: as above; format: cell-based; details: C4Dd2; test solute 10 μM
T2 construct: PfCRT also functions as a peptide transporter within its native environment of the DV membrane; expressed in transfected cells; host or cells: P. falciparum pfcrt transfectant line C4^Dd2 (saponin-isolated trophozoites)
T2 sequence (Q8IBZ9 1-424 M74I/N75E/K76T/A220S/Q271E/N326S/I356T/R371I): T1 sequence (Q8IBZ9 1-424) with M74I, N75E, K76T, A220S, Q271E, N326S, I356T, R371I

[3] = biological target: T3, PfCRT^7G8 in C6^7G8 parasites (Plasmodium falciparum, UniProt Q8IBZ9, A220S/C72S/I351M/I356L/K76T/N326D); experiment: as above; format: cell-based; details: C67G8; test solute 10 μM
T3 construct: PfCRT also functions as a peptide transporter within its native environment of the DV membrane; expressed in transfected cells; host or cells: P. falciparum pfcrt transfectant line C6^7G8 (saponin-isolated trophozoites)
T3 sequence (Q8IBZ9 1-424 C72S/K76T/A220S/N326D/I351M/I356L): T1 sequence (Q8IBZ9 1-424) with C72S, K76T, A220S, N326D, I351M, I356L

PfCRT [4] = experiment: Test of solutes as potential co-substrates for influx of VF-6 via PfCRT into the oocyte; format: cell-based, Plasmodium falciparum; parameters: key: X: Compounds that have been tested as potential co-substrates but are not required for influx of VF-6 via PfCRT into the oocyte; details: X = tested
PfCRT [5] = experiment: Potential co-substrates tested for influx of VF-6 via PfCRT into the oocyte; format: cell-based, Plasmodium falciparum; parameters: key: X: Compounds that have been tested as potential co-substrates but are not required for influx of VF-6 via PfCRT into the oocyte
PfCRT^3D7 [6] = biological target: T4, PfCRT^3D7 (Plasmodium falciparum, UniProt Q8IBZ9); experiment: cell-based; format: cell-based
Outline: (§1)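 ND96, pH 5.5, 1.5 h, 27.5 °C; uptake direction acidic outside → oocyte cytosol, mimicking efflux from digestive vacuole. Ice-cold wash stop, 10% SDS lysis, scintillation counting. Ten oocytes/treatment, ≥4 independent experiments.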

non-expressing oocytes [7] = format: cell-based, Xenopus laevis; details: SEM
Outline: (§2)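 Oocytes (ten per treatment, ≥4 independent frogs/days) were preloaded by injecting VF-6 in 25 nL ND96 at pH 5.0, 5.5, 6.0 or 7.0, or Na^+-free choline buffer, then uptake run 1.5 h, 27.5 °C, ND96 pH 5.5 by default. Internal concentrations assumed ~400 nL oocyte volume.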

PfCRT^Ecu1110 = PfCRT^Ecu1110 (Plasmodium falciparum, UniProt Q9N623, A220S/I356L/K76T/N326D); experiment: [3H]CQ uptake into Xenopus oocytes, cis-inhibition by unlabelled solute; format: cell-based
Outline: as §1

PfCRT^Dd2 = PfCRT^Dd2 (Plasmodium falciparum, UniProt Q9N623, A220S/I356T/K76T/M74I/N326S/N75E/Q271E/R371I); experiment: as above; format: cell-based
Outline: as §1

PfNT1 = biological target: T5, PfNT1 (Plasmodium falciparum, UniProt Q8IDM6); experiment: cell-based; format: cell-based; details: […], read-out: Uptake of [3H]CQ (% PfCRTDd2 control), trans-stimulation, PfNT1; SEM
T5 construct: expressed in transfected cells; host or cells: Xenopus laevis oocytes (stage V-VI), cRNA-injected
Outline: as §2

PfCRT^3D7 [8] = biological target: T4, PfCRT^3D7; experiment: cell-based; format: cell-based; details: SEM
Outline: as §2

PfCRT [9] = experiment: Influx of VF-6 via PfCRT into the oocyte, solutes tested as potential co-substrates; format: cell-based, Plasmodium falciparum; parameters: key: X: Compounds that have been tested as potential co-substrates but are not required for influx of VF-6 via PfCRT into the oocyte; details: X marks the solute
non-expressing oocytes [10] = experiment: cells; format: cell-based, Xenopus laevis; details: Xenopus laevis, Oocyte
Outline: as §1

[11] = read-out: Uptake of [3H]CQ (% PfCRTDd2 control), cis-inhibition, PfCRT3D7, SEM
[12] = read-out: PfCRT-mediated [3H]CQ transport, cis-inhibition (% PfCRTEcu1110 control)
[13] = read-out: Uptake of [3H]CQ (% PfCRTDd2 control), cis-inhibition, PfCRTEcu1110, SEM
[14] = read-out: Uptake of [3H]CQ (% PfCRTEcu1110 control), cis-inhibition
[15] = read-out: [3H]CQ transport (% PfCRTEcu1110 control), cis-inhibition, PfCRTEcu1110, SEM
[16] = read-out: PfCRT-mediated [3H]CQ transport, cis-inhibition (% PfCRTDd2 control)
[17] = read-out: Uptake of [3H]CQ (% PfCRTDd2 control), cis-inhibition, non-expressing oocytes, SEM
[18] = read-out: Uptake of [3H]CQ (% non-expressing oocyte control), cis-inhibition

PfCRT^Ecu1110, sequence (Q9N623 whole entry A220S/I356L/K76T/N326D): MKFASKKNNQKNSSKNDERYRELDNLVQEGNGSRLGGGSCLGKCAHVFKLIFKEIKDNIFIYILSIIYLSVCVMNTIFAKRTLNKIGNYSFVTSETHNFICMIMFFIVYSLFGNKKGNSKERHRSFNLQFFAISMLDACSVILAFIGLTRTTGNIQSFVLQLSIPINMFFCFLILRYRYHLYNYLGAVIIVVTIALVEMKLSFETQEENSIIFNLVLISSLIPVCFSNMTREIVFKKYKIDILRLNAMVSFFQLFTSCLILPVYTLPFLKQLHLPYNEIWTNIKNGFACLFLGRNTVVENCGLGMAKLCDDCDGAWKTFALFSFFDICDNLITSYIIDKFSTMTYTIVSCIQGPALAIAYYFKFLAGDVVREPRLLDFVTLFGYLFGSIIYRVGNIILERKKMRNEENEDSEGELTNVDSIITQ
PfCRT^Dd2, sequence (Q9N623 whole entry A220S/I356T/K76T/M74I/N326S/N75E/Q271E/R371I): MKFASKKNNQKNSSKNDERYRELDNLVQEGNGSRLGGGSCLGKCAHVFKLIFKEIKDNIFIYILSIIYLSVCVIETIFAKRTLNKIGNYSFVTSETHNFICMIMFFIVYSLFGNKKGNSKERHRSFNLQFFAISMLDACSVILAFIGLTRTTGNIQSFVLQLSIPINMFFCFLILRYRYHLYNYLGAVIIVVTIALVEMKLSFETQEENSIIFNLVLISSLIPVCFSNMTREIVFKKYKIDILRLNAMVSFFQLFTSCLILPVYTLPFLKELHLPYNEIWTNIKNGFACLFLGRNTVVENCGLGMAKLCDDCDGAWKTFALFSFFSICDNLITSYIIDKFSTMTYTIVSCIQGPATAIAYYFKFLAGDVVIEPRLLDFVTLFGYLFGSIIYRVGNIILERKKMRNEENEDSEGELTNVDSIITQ
T5 sequence (Q8IDM6 whole entry): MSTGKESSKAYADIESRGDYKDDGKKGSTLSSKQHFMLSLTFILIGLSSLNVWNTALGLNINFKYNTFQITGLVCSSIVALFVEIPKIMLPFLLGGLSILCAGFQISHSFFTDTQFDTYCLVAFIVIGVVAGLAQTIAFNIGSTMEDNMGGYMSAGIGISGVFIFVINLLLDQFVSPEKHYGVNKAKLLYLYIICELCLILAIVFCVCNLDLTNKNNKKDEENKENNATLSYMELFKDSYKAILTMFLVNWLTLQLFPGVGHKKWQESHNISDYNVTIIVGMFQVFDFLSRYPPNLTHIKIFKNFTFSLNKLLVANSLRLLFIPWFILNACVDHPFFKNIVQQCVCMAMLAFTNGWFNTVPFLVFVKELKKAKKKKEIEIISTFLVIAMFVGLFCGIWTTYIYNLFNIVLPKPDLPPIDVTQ

SMILES: CC(=O)N[C@@H](CC(C)C)C(=O)N[C@@H](CC(C)C)C(=O)N[C@H](C=O)CCCNC(=N)N [Leupeptin, leupeptin]
- Effect on rate of DV alkalinisation / H+ leak (in words) [1]: caused a H^+ leak
- Effect on rate of DV alkalinisation / H+ leak (in words) [2]: neither peptide exerted an effect
- Effect on rate of DV alkalinisation / H+ leak (in words) [3]: induced a H^+ leak

SMILES: Cc1cccc(C)c1OCC(=O)N[C@@H](Cc1ccccc1)[C@@H](O)C[C@H](Cc1ccccc1)NC(=O)[C@H](C(C)C)N1CCCNC1=O [lopinavir]
- Effect on rate of DV alkalinisation / H+ leak (in words) [1]: without effect
- Effect on rate of DV alkalinisation / H+ leak (in words) [2]: without effect
- Effect on rate of DV alkalinisation / H+ leak (in words) [3]: without effect

SMILES: O=C(O)[C@@H]1CCCN1 [L-proline]
- Tested as potential co-substrate but not required for influx of VF-6 via PfCRT into the oocyte (PfCRT [4]): X
- Tested as potential co-substrate but not required for influx of VF-6 via PfCRT into the oocyte (PfCRT [5]): X
- inhibition at 500 µM (PfCRT^3D7 [6]; read-out: Uptake of [3H]CQ (% PfCRT3D7 control), cis-inhibition): 99 ± 6.2%
- inhibition at 500 µM (PfCRT^3D7 [6]; [11]): 2.3 ± 0.01%
- inhibition at 2000 µM (PfCRT^3D7 [6]; [11]): 2.6 ± 0.04%
- Uptake of [3H]CQ (% PfCRTDd2 control), trans-stimulation, non-expressing oocytes (non-expressing oocytes [7]): 2.6 ± 0.08 % PfCRTDd2 control
- inhibition at 500 µM (PfCRT^Ecu1110; [12]): 98 ± 4.6%
- inhibition at 1000 µM (PfCRT^Ecu1110; [12]): 94 ± 3.6%
- inhibition at 2000 µM (PfCRT^Ecu1110; [12]): 95 ± 2.6%
- inhibition at 500 µM (PfCRT^Ecu1110; [13]): 33 ± 1.4%
- inhibition at 1000 µM (PfCRT^Ecu1110; [13]): 31 ± 1.5%
- inhibition at 2000 µM (PfCRT^Ecu1110; [13]): 32 ± 1.4%
- inhibition at 500 µM (PfCRT^Ecu1110; [14]): 100 ± 7.7%
- inhibition at 1000 µM (PfCRT^Ecu1110; [14]): 96 ± 8.1%
- inhibition at 2000 µM (PfCRT^Ecu1110; [14]): 96 ± 4.3%
- inhibition at 500 µM (PfCRT^Ecu1110; [15]): 30 ± 1.4%
- inhibition at 1000 µM (PfCRT^Ecu1110; [15]): 28 ± 0.6%
- inhibition at 2000 µM (PfCRT^Ecu1110; [15]): 29 ± 1.4%
- inhibition at 500 µM (PfCRT^Dd2; [16]): 95 ± 4.2%
- inhibition at 1000 µM (PfCRT^Dd2; [16]): 96 ± 3.2%
- inhibition at 1000 µM (PfCRT^Dd2; read-out: Uptake of [3H]CQ (% PfCRTDd2 control), cis-inhibition, PfCRTDd2, SEM): 98 ± 4.8%
- activity at 5000 µM (PfNT1): 3.1 ± 0.08%
- [3H]CQ transport (% PfCRT3D7 control), trans-stimulation, PfCRT3D7 (PfCRT^3D7 [8]): 0.2 ± 0.02 % PfCRT3D7 control
- Compounds that have been tested as potential co-substrates but are not required for influx of VF-6 via PfCRT into the oocyte (PfCRT [9]): X
- inhibition at 500 µM (non-expressing oocytes [10]; [17]): 2.8 ± 0.09%
- inhibition at 1000 µM (non-expressing oocytes [10]; [17]): 3.1 ± 0.03%
- inhibition at 2000 µM (non-expressing oocytes [10]; [17]): 3.4 ± 0.07%
- inhibition at 500 µM (non-expressing oocytes [10]; [18]): 99 ± 3.3%
- inhibition at 1000 µM (non-expressing oocytes [10]; [18]): 100 ± 3.5%
- inhibition at 2000 µM (non-expressing oocytes [10]; [18]): 97 ± 5.3%

SMILES: CC(C)C[C@H](NC(=O)[C@H]1O[C@@H]1C(=O)O)C(=O)NCCCCN=C(N)N [E-64]
- Effect on rate of DV alkalinisation / H+ leak (in words) [1]: caused a H^+ leak
- Effect on rate of DV alkalinisation / H+ leak (in words) [2]: neither peptide exerted an effect

SMILES: CC(C)c1nc(CN(C)C(=O)N[C@H](C(=O)N[C@@H](Cc2ccccc2)C[C@H](O)[C@H](Cc2ccccc2)NC(=O)OCc2cncs2)C(C)C)cs1 [ritonavir]
- Effect on rate of DV alkalinisation / H+ leak (in words) [1]: without effect
- Effect on rate of DV alkalinisation / H+ leak (in words) [2]: without effect
- Effect on rate of DV alkalinisation / H+ leak (in words) [3]: without effect
